This is an account of results in patent US4207326A, “Antimicrobial quaternary pyrazole derivatives” (Cilag-Chemie A.G., priority 1979, dated 1980).

One may read the MIC as the lowest concentration found to suppress growth. Read a high MIC as a need for much substance.

Like-named read-outs stand apart in the source and are kept apart here.

One assay relates to S. aureus. Kind of assay: Antibacterial activity: Minimum Inhibitory Concentration. In kind it is cell-based, Staphylococcus aureus ATCC 6538. The following applies: 24 hours; for MIC: Staphylococcus aureus. The method, then: (§1) The antimicrobial activity was determined by inoculation of the test microorganism into suitable growth media containing solutions of the compounds at concentrations of 100, 50, 10, 5, 1.0, 0.5 and 0.1 μg/ml. The reference antibiotics used were Gentamicin for the antibacterial tests and Amphotericin B for the antimycotic and antifungal tests. After incubation the antimicrobial activity was recorded as the Minimal Inhibitory Concentration (M.I.C.), i.e., the lowest concentration preventing macroscopically visible growth, for each test compound against each organism.
(§2) An initial solution of each formula (I) compound to be tested in sterile distilled water was prepared at a concentration of 1000 μg/ml. With appropriate dilutions using sterile distilled water, additional solutions were prepared at concentrations of 500, 100, 50, 10, 5 and 1 μg/ml.
(§3) They were cultured and maintained on Tryptone Soy Agar (Oxoid CM 131), with the addition of 10% horse blood for the S. pyogenes.
(§4) To prepare the organisms as inocula for the test, slopes of this medium were streaked with the organisms and incubated at 37° C. for 24 hours. 4.5 Ml volumes of Brian-Heart Infusion Broth (Oxoid CM 225) were then inoculated with a platinum loop from the agar slope cultures and incubated for 24 hours at 37° C. The final inocula were then prepared by adding 0.1 ml aliquots of the Brain-Heart Infusion Broth cultures to 100 ml volumes of sterile physiological saline.
(§5) (a) For the test on each of the bacterial strains and each of the test and reference compounds, a series of 8 tubes containing 4.5 ml volumes of Brain-Heart Infusion Broth (Oxoid CM 225) were prepared. To 7 of these were added 0.5 ml volumes of the final solutions of the test compouns, giving final concentrations in the broths of 100, 50, 10, 5, 1.0, 0.5 and 0.1 μg/ml. To the eighth tube in each series was added 0.5 ml of the solvent used and diluted as for the preparation of the 1000 μg/ml solution of the compound. This tube was used as the growth control. The tubes were inoculated with 0.02 ml aliquots of the inocula prepared in accordance with "(a) Bacteria" above, and incubated at 37° C. for 24 hours. The tubes were then examined for evidence of bacterial growth as shown by turbidity of the medium and the lowest concentration of the test compound which prevented bacterial growth was recorded as the Minimal Inhibitory Concentration. This test procedure was carried out on two separate days.

The test system of the next assay is S. pyogenes. Described as above. The following applies: 24 hours; for MIC: Streptococcus pyogenes. In kind it is cell-based, Streptococcus pyogenes NCTC 8198. How it is done: as §1, §2, §3, §4, §5
The subject of assay [1] is Algae (diatoms, green and blue algae). Kind of assay: Algicidal activity in 350 liter concrete pools under outdoor conditions. The following applies: for killing at 1 µg/mL: 1 mg/l water; for killing at 2 µg/mL: 2 mg/l water; for killing at 4 µg/mL: 4 mg/l water. The text has this: A comparison of the algicidic activity of the preferred compound, 1-hexadecyl-2,3,5-trimethyl-pyrazolium methosulfate, with said standard is shown in Table 4.
Results given above are mean values from 2 replicates of
Test conditions: Severe with high infection pressure after artificial
algae inoculation in 350 liter concrete pools under outdoor conditions.
Stains included: Green algae: Chlorella, Zygnema, Hormidium + Scenedesmus
Blue algae: Phormidium species
Diatoms: Nitzschea pallea
Water temperature: Day: 21° C., night: 18°-20° C.

Where [2] appears, read: mean over weeks 1-6, read-out: % algicidal activity, --x (mean).
Where [3] appears, read: 168 h, 1 week after treatment, mean of 2 replicates, read-out: % algicidal activity.
The mark [4] stands for this setting: 336 h, 2 weeks after treatment, mean of 2 replicates, read-out: % algicidal activity.
Setting [5] is: 504 h, 3 weeks after treatment, mean of 2 replicates, read-out: % algicidal activity.
The mark [6] stands for this setting: 672 h, 4 weeks after treatment, mean of 2 replicates, read-out: % algicidal activity.
The mark [7] stands for this setting: 840 h, 5 weeks after treatment, mean of 2 replicates, read-out: % algicidal activity.
The mark [8] stands for this setting: 1008 h, 6 weeks after treatment, mean of 2 replicates, read-out: % algicidal activity.

As to “2,3(5)-dimethyl-1-dodecyl-pyrazolium methosulfate [Example 8-A]”, the “Minimum Inhibitory Concentration” value is 1 µg/mL in the assay with S. aureus (Day 1, 37° C.); 0.5 µg/mL in the assay with S. aureus (Day 2, 37° C.); 5 µg/mL with S. pyogenes (Day 1, 37° C.); 5 µg/mL in the assay with S. pyogenes (Day 2, 37° C.).

Consider “2,3(5)-dimethyl-1-hexadecyl-pyrazolium methosulfate [Example 9]”, for which the “Minimum Inhibitory Concentration” value in the assay on S. aureus (Day 1, 37° C.) came to 0.5 µg/mL; with S. aureus (Day 2, 37° C.), 0.5 µg/mL; in the assay on S. pyogenes (Day 1, 37° C.), 0.5 µg/mL; in the assay with S. pyogenes (Day 2, 37° C.) it was 0.5 µg/mL.

Consider `CCCCCCCCCCCCn1c(C)cc(C)[n+]1C` [Example 1, 1-dodecyl-2,3,5-trimethyl-pyrazolium methosulfate], for which the MIC in the assay with S. aureus (Day 1, 37° C.) turned out to be 5 µg/mL; in the assay on S. aureus (Day 2, 37° C.), 5 µg/mL; against S. pyogenes (Day 1, 37° C.) it was 1 µg/mL; against S. pyogenes (Day 2, 37° C.), 0.5 µg/mL.

Turning to `CCCCCCCCCCCCCCCCn1c(C)cc(C)[n+]1C` [Example 2, 1-hexadecyl-2,3,5-trimethyl-pyrazolium methosulfate], the minimum inhibitory concentration (MIC) in the assay on S. aureus (Day 1, 37° C.) turned out to be 0.5 µg/mL; against S. aureus (Day 2, 37° C.) it was 0.5 µg/mL; in the assay with S. pyogenes (Day 1, 37° C.), 0.5 µg/mL; against S. pyogenes (Day 2, 37° C.), 0.5 µg/mL. The killing at 1 µg/mL in assay [1] (setting [2]) is 96%; in assay [1] (setting [3]), 100%; in assay [1] (setting [4]), 100%; in assay [1] (setting [6]) it was 96%; in assay [1] (setting [7]), 93%; in assay [1] (setting [8]), 88%. Besides, the killing at 2 µg/mL was determined as 99% in assay [1] (setting [2]); 100% in assay [1] (setting [3]); 100% in assay [1] (setting [4]); 100% in assay [1] (setting [5]); 100% in assay [1] (setting [6]); 100% in assay [1] (setting [7]). For the same compound, the killing at 2 µg/mL in assay [1] (setting [8]) was 98%. In addition, the killing at 4 µg/mL in assay [1] (setting [2]), in assay [1] (setting [3]), in assay [1] (setting [4]), in assay [1] (setting [5]), in assay [1] (setting [6]) and in assay [1] (setting [7]) was 100% each time. The killing at 4 µg/mL in assay [1] (setting [8]) is 100%.

As for `CCCCCCCCCCCCCCCCn1ccc[n+]1C` [Example 3-D, 1-hexadecyl-2-methyl-pyrazolium methosulfate], the MIC against S. aureus (Day 1, 37° C.) came to 0.5 µg/mL; with S. aureus (Day 2, 37° C.) it was 0.5 µg/mL; against S. pyogenes (Day 1, 37° C.) it was 0.5 µg/mL; in the assay with S. pyogenes (Day 2, 37° C.) it was 0.5 µg/mL.

As to `CCCCCCCCCCCCn1ccc[n+]1C` [Example 3-E, 1-dodecyl-2-methy-pyrazolium methosulfate], the MIC in the assay with S. aureus (Day 1, 37° C.) came out at 1 µg/mL; against S. aureus (Day 2, 37° C.), 1 µg/mL; with S. pyogenes (Day 1, 37° C.), 5 µg/mL; against S. pyogenes (Day 2, 37° C.), 5 µg/mL.

Consider `CCCCCCCCCCCCCCn1ccc[n+]1C` [Example 3-G, 2-methyl-1-tetradecyl-pyrazolium methosulfate], for which the MIC in the assay with S. aureus (Day 1, 37° C.) came to 0.5 µg/mL; against S. aureus (Day 2, 37° C.), 0.5 µg/mL; in the assay with S. pyogenes (Day 1, 37° C.) it was 0.5 µg/mL; in the assay on S. pyogenes (Day 2, 37° C.) it was 0.5 µg/mL.

In the case of `CCCCCCCCCCCC[n+]1c(C)cc(C)n1Cc1ccc(Cl)cc1Cl.[Br-]` [Example 6-B, 2-(2,4-dichlorobenzyl)-3,5-dimethyl-1-dodecyl-pyrazolium bromide], the MIC was found to be 0.5 µg/mL against S. aureus (Day 1, 37° C.); 0.5 µg/mL against S. aureus (Day 2, 37° C.); 0.5 µg/mL in the assay with S. pyogenes (Day 1, 37° C.); 0.5 µg/mL in the assay on S. pyogenes (Day 2, 37° C.).

As for `CCCCCCCCCCCCCCCC[n+]1c(C)cc(C)n1C.Cc1ccc(S(=O)(=O)[O-])cc1` [Example 6-C, 1-hexadecyl-2,3,5-trimethylpyrazolium p-toluene sulfonate], the minimal inhibitory concentration (MIC) against S. aureus (Day 1, 37° C.) stood at 0.5 µg/mL; with S. aureus (Day 2, 37° C.), 0.5 µg/mL.

With `CCCCCCCCCCCCCC[n+]1c(C)cc(C)n1Cc1ccc([N+](=O)[O-])cc1.[Br-]` [Example 6-D, 3,5-dimethyl-2(4-nitrobenzyl)-1-tetradecyl-pyrazolium bromide], the MIC with S. aureus (Day 1, 37° C.) came out at 1 µg/mL; in the assay on S. aureus (Day 2, 37° C.) it was 0.5 µg/mL; in the assay on S. pyogenes (Day 1, 37° C.) it was 0.5 µg/mL; against S. pyogenes (Day 2, 37° C.) it was 1 µg/mL.

With `CCCCCCCCCCCC[n+]1c(C)cc(C)n1Cc1ccc(Cl)cc1.[Br-]` [Example 6-E, 2-(p-chlorobenzyl)-3,5-dimethyl-1-dodecyl-pyrazolium bromide], the MIC against S. aureus (Day 1, 37° C.) stood at 0.5 µg/mL; with S. aureus (Day 2, 37° C.), 0.5 µg/mL; in the assay with S. pyogenes (Day 1, 37° C.) it was 0.5 µg/mL; against S. pyogenes (Day 2, 37° C.), 0.5 µg/mL.

Consider `C=CCn1c(C)cc(C)[n+]1CCCCCCCCCCCCCCCC.[Br-]` [Example 7, 2-allyl-3,5-dimethyl-1-hexadecyl-pyrazoliumbromide], for which the minimal inhibitory concentration (MIC) against S. aureus (Day 1, 37° C.) was 0.5 µg/mL; with S. aureus (Day 2, 37° C.), 0.5 µg/mL; against S. pyogenes (Day 1, 37° C.), 0.5 µg/mL; in the assay on S. pyogenes (Day 2, 37° C.) it was 0.5 µg/mL.
